The text below walks through data of US11358970B2, “Artemisinin-derived trimers and tetramers and their use thereof” (priority 2017, dated 2022).

In one test the test system is 23 leukemia cell lines. The settings on record: average over 23 leukemia cell lines, relative to artesunate; cited from earlier work.
The next test has as its system cytomegalovirus. The settings on record: relative to artesunate; cited from earlier work.
The test system of test [1] is MOLT4 (human T-cell acute lymphoblastic leukemia). As to the kind of experiment: MTT cytotoxicity assay, MOLT4 cell line. The format is cell-based. The settings on record: read-out: IC50 MOLT4. The method, then:
(§1) Artesunate and dihydroartemisinin were purchased from AK Scientific (Union City, Calif.). CellTiter 96® Non-Radioactive Cell Proliferation Assay (MTT) reagent was purchased from Promega (Madison, Wis.). A549 (human lung carcinoma), HeLa (human cervical carcinoma), MOLT4 (human T-cell acute lymphoblastic leukemia) were purchased from American Type Culture Collection (Manassas, Va.) and cultured in Ham's F-12 K media supplemented with 10% FBS, 100 μg/ml of penicillin and 100 μg/ml of streptomycin. The culture was maintained at 37° C. in a humidified atmosphere of 5% CO2 and 95% air.
(§2) Both reference and test compounds were dissolved in DMSO in a 10-concentration and 3-fold serial dilution format. 50 nl stock solution of test compounds or 25 nl of reference compounds were delivered from the source plate to the wells of 384-well cell culture plates. 25 μl of culture medium containing 2,000 corresponding cancer cells were added to the wells. The plates were incubated at 37° C. in a humidified atmosphere of 5% CO2 and 95% air for 72 hours. 4 μl of MTT Dye Solution was added to each well and the plates were incubated at 37° C. in a CO2 incubator for 4 hours. After incubation, the formazan was produced in the cells. 25 μl of Solubilization/Stop Solution was added to each well and the plates were incubated for another 1 hour at 37° C. in a CO2 incubator to dissolve the formazan crystals.
(§3) The absorbance of each sample was measured at 590 nm using Envision 2104 Multilabel Reader (PerkinElmer, Santa Clara, Calif.). The cell viability was determined based on the quantification of the color intensity in each culture well. The inhibitory curves were plotted and the IC50 values were calculated using GraphPad Prism 4 program based on a sigmoidal dose-response equation.

The next test concerns HepG2 cell line. The test is described as follows: MTT cytotoxicity assay, HepG2 cell line. In kind it is cell-based. How it is done: as §2, §3
Test [2] concerns HeLa (human cervical carcinoma). The test is described as follows: MTT cytotoxicity assay, HeLa cell line. The format is cell-based. The settings on record: read-out: IC50 HeLa. How it is done:
as §1, §2, §3

The test system of test [3] is A549 (human lung carcinoma). As to the kind of experiment: MTT cytotoxicity assay, A549 cell line. The settings on record: 72 hours; for inhibition at 0.1 µM / inhibition at 0.25 µM / inhibition at 0.5 µM / inhibition at 1 µM: Homo sapiens. The format is cell-based. The method, then: as §1, §2, §3
Setting [4] is: Homo sapiens, MOLT-4, MOLT4, 72 hours, MTT.
Where [5] appears, read: HepG2, MTT, read-out: IC50 HepG2.
Where [6] appears, read: Homo sapiens, HepG2, MTT, read-out: IC50 HepG2.

Structures are written as SMILES. Where two headings read alike, the source gives them in different places.

Turning to `C[C@@H]1CCC2[C@@H](C)[C@@H](CC(COP(=O)(Oc3ccccc3)Oc3ccccc3)C[C@H]3O[C@@H]4O[C@@]5(C)CCC6[C@H](C)CCC([C@H]3C)[C@]64OO5)O[C@@H]3O[C@@]4(C)CCC1[C@@]23OO4` (some centres unmarked) [ART838], in the test on 23 leukemia cell lines, the “folds more potent than artesunate in inhibiting 23 leukemia cell lines (average)” value is 88 folds. In addition, the “fold more potent in inhibiting growth of cytomegalovirus than artesunate” value in the test with cytomegalovirus is recorded as 165 fold.

Take `C[C@H]1[C@H](OC(=O)CCC(=O)O)O[C@@H]2O[C@@]3(C)CC[C@H]4[C@H](C)CC[C@@H]1[C@@]24OO3` [Artesunate, reference compound]: the half-inhibitory concentration (IC50) was found to be 1010 nM in test [1] (Homo sapiens, MOLT-4, 72 h); 11200 nM in the test with HepG2 cell line (Homo sapiens, HepG2, read-out: IC50 HepG2); 9570 nM in test [2] (Homo sapiens, 72 h).

Regarding `C[C@H]1[C@H](OC(=O)CCC(=O)OCCN(CCOC(=O)CCC(=O)O[C@@H]2O[C@@H]3O[C@]4(C)CC[C@H]5[C@H](C)CC[C@@H]([C@H]2C)[C@@]35OO4)CCOC(=O)CCC(=O)O[C@@H]2O[C@@H]3O[C@]4(C)CC[C@H]5[C@H](C)CC[C@@H]([C@H]2C)[C@@]35OO4)O[C@@H]2O[C@@]3(C)CC[C@H]4[C@H](C)CC[C@@H]1[C@@]24OO3` [Compound 1], the IC50 was found to be 318 nM in test [1] (setting [4]) and 1720 nM in test [2] (Homo sapiens, 72 hours, MTT). In test [3] (0.1 μM), this molecule came in with an inhibition at 0.1 µM of 10%. This molecule showed an inhibition at 0.25 µM in test [3] (0.25 μM) of 14%. This molecule showed an inhibition at 0.5 µM in test [3] (0.5 μM) of 20%. This molecule also showed an inhibition at 1 µM in test [3] (1.0 μM) of 47%.

For the molecule `C[C@@H]1CC[C@H]2[C@@H](C)C(OC(=O)CN(CC(=O)OC3O[C@@H]4O[C@@]5(C)CC[C@H]6[C@H](C)CC[C@@H]([C@H]3C)[C@@]46OO5)CC(=O)OC3O[C@@H]4O[C@@]5(C)CC[C@H]6[C@H](C)CC[C@@H]([C@H]3C)[C@@]46OO5)O[C@@H]3O[C@@]4(C)CC[C@@H]1[C@]32OO4` (some centres unmarked) [Compound 2], the IC50 in test [1] (MOLT4, 72 hours, MTT) came out at 320 nM; in test [2] (72 hours, MTT), 1140 nM. For the same molecule, the “Inhibition (%)” value is given as 12% in test [3] (0.1 μM), 20% in test [3] (0.25 μM), 21% in test [3] (0.5 μM) and 40% in test [3] (1.0 μM).

For `CC1CCC2C(C)C(OC(=O)CCC(=O)OCC(COC(=O)CCC(=O)OC3OC4OC5(C)CCC6C(C)CCC(C3C)C46OO5)OC(=O)CCC(=O)OC3OC4OC5(C)CCC6C(C)CCC(C3C)C46OO5)OC3OC4(C)CCC1C32OO4` (centres unmarked) [Compound 3], the IC50 was 60 nM in test [1] (MOLT4, 72 hours, MTT); 830 nM in the test on HepG2 cell line (setting [5]); 630 nM in test [2] (72 hours, MTT).

As to `C[C@H]1[C@H](OC(=O)CCC(=O)NC(COC(=O)CCC(=O)O[C@@H]2O[C@@H]3O[C@@]4(C)CC[C@H]5[C@H](C)CC[C@@H]([C@H]2C)[C@@]35OO4)COC(=O)CCC(=O)O[C@@H]2O[C@@H]3O[C@@]4(C)CC[C@H]5[C@H](C)CC[C@@H]([C@H]2C)[C@@]35OO4)O[C@@H]2O[C@@]3(C)CC[C@H]4[C@H](C)CC[C@@H]1[C@@]24OO3` [Compound 4], the IC50 with HepG2 cell line (setting [6]) was 1790 nM.

Turning to `C[C@H]1[C@H](OC(=O)CCC(=O)OCC(COC(=O)CCC(=O)O[C@@H]2O[C@@H]3O[C@@]4(C)CC[C@H]5[C@H](C)CC[C@@H]([C@H]2C)[C@@]35OO4)(COC(=O)CCC(=O)O[C@@H]2O[C@@H]3O[C@@]4(C)CC[C@H]5[C@H](C)CC[C@@H]([C@H]2C)[C@@]35OO4)NC(=O)OC(C)(C)C)O[C@@H]2O[C@@]3(C)CC[C@H]4[C@H](C)CC[C@@H]1[C@@]24OO3` [Compound 7], the IC50 amounted to 119 nM in test [1] (setting [4]) and 602 nM in test [2] (Homo sapiens, 72 hours, MTT). For the same molecule, the inhibition at 0.1 µM in test [3] (0.1 μM) was 12%. Also, at 0.25 µM the inhibition in test [3] (0.25 μM) was 14%. In test [3] (0.5 μM), this molecule showed an inhibition at 0.5 µM of 21%. Further, in test [3] (1.0 μM), the inhibition at 1 µM is 40%.

With `CC(=O)NC(COC(=O)CCC(=O)O[C@@H]1O[C@@H]2O[C@@]3(C)CC[C@H]4[C@H](C)CC[C@@H]([C@H]1C)[C@@]24OO3)(COC(=O)CCC(=O)O[C@@H]1O[C@@H]2O[C@@]3(C)CC[C@H]4[C@H](C)CC[C@@H]([C@H]1C)[C@@]24OO3)COC(=O)CCC(=O)O[C@@H]1O[C@@H]2O[C@@]3(C)CC[C@H]4[C@H](C)CC[C@@H]([C@H]1C)[C@@]24OO3` [Compound 9], the IC50 in test [1] (setting [4]) was 66 nM; with HepG2 cell line (setting [6]) it was 310 nM; in test [2] (Homo sapiens, 72 hours, MTT) it was 360 nM.

With `C[C@H]1[C@H](OC(=O)CCC(=O)OCC(COC(=O)CCC(=O)O[C@@H]2O[C@@H]3O[C@@]4(C)CC[C@H]5[C@H](C)CC[C@@H]([C@H]2C)[C@@]35OO4)(COC(=O)CCC(=O)O[C@@H]2O[C@@H]3O[C@@]4(C)CC[C@H]5[C@H](C)CC[C@@H]([C@H]2C)[C@@]35OO4)NC=O)O[C@@H]2O[C@@]3(C)CC[C@H]4[C@H](C)CC[C@@H]1[C@@]24OO3` [Compound 11], the IC50 in the test on HepG2 cell line (setting [6]) came to 550 nM.

For `C[C@H]1[C@H](OC(=O)CCC(=O)OCC(COC(=O)CCC(=O)O[C@@H]2O[C@@H]3O[C@@]4(C)CC[C@H]5[C@H](C)CC[C@@H]([C@H]2C)[C@@]35OO4)(COC(=O)CCC(=O)O[C@@H]2O[C@@H]3O[C@@]4(C)CC[C@H]5[C@H](C)CC[C@@H]([C@H]2C)[C@@]35OO4)NC(=O)C(F)(F)F)O[C@@H]2O[C@@]3(C)CC[C@H]4[C@H](C)CC[C@@H]1[C@@]24OO3` [Compound 12], the IC50 in the test on HepG2 cell line (setting [6]) was found to be 7800 nM.

For `C[C@@H]1[C@@H](OC(=O)CCC(=O)NC(COC(=O)CCC(=O)O[C@@H]2O[C@@H]3O[C@@]4(C)CC[C@H]5[C@H](C)CC[C@@H]([C@H]2C)[C@@]35OO4)(COC(=O)CCC(=O)O[C@@H]2O[C@@H]3O[C@@]4(C)CC[C@H]5[C@H](C)CC[C@@H]([C@H]2C)[C@@]35OO4)COC(=O)CCC(=O)O[C@@H]2O[C@@H]3O[C@@]4(C)CC[C@H]5[C@H](C)CC[C@@H]([C@H]2C)[C@@]35OO4)O[C@H]2O[C@@]3(C)CC[C@@H]4[C@@H](C)CC[C@H]1[C@]24OO3` [Compound 13], the IC50 in test [1] (setting [4]) amounted to 150 nM; in test [2] (Homo sapiens, 72 hours, MTT), 14200 nM.

Regarding `C[C@H]1[C@H](OC(=O)CC(CC(=O)O[C@@H]2O[C@@H]3O[C@]4(C)CC[C@H]5[C@H](C)CC[C@@H]([C@H]2C)[C@@]35OO4)C(=O)O[C@@H]2O[C@@H]3O[C@]4(C)CC[C@H]5[C@H](C)CC[C@@H]([C@H]2C)[C@@]35OO4)O[C@@H]2O[C@@]3(C)CC[C@H]4[C@H](C)CC[C@@H]1[C@@]24OO3` (some centres unmarked) [Compound 14], the IC50 with HepG2 cell line (setting [5]) turned out to be 1300 nM.

`C[C@H]1[C@H](OC(=O)CCC(=O)OCCN(CCOC(=O)CCC(=O)O[C@@H]2O[C@@H]3O[C@@]4(C)CC[C@H]5[C@H](C)CC[C@@H]([C@H]2C)[C@@]35OO4)CCN(CCOC(=O)CCC(=O)O[C@@H]2O[C@@H]3O[C@@]4(C)CC[C@H]5[C@H](C)CC[C@@H]([C@H]2C)[C@@]35OO4)CCOC(=O)CCC(=O)O[C@@H]2O[C@@H]3O[C@@]4(C)CC[C@H]5[C@H](C)CC[C@@H]([C@H]2C)[C@@]35OO4)O[C@@H]2O[C@@]3(C)CC[C@H]4[C@H](C)CC[C@@H]1[C@@]24OO3` [Compound 15]: the IC50 is 275 nM in test [1] (setting [4]) and 35200 nM in test [2] (Homo sapiens, 72 hours, MTT).

Regarding `C[C@H]1[C@H](OC(=O)CCC(=O)OCCN(CCO)CCN(CCOC(=O)CCC(=O)O[C@@H]2O[C@@H]3O[C@@]4(C)CC[C@H]5[C@H](C)CC[C@@H]([C@H]2C)[C@@]35OO4)CCOC(=O)CCC(=O)O[C@@H]2O[C@@H]3O[C@@]4(C)CC[C@H]5[C@H](C)CC[C@@H]([C@H]2C)[C@@]35OO4)O[C@@H]2O[C@@]3(C)CC[C@H]4[C@H](C)CC[C@@H]1[C@@]24OO3` [Compound 16], the IC50 in test [1] (setting [4]) is 217 nM; in test [2] (Homo sapiens, 72 hours, MTT), 1110 nM.

Consider `C[C@H]1[C@@H](O)O[C@@H]2O[C@@]3(C)CC[C@H]4[C@H](C)CC[C@@H]1[C@@]24OO3` [Dihydroartemisinin, reference compound], for which the IC50 in test [1] (setting [4]) came out at 680 nM; in test [2] (Homo sapiens, 72 hours, MTT), 9340 nM. In addition, in test [3] (0.25 μM), the inhibition at 0.25 µM is 5%. The inhibition at 0.5 µM in test [3] (0.5 μM) was determined as 10%. In test [3] (1.0 μM), this molecule gave an inhibition at 1 µM of 20%.
